Consider one compound from EP0462621A2, “Use of particular compounds for manufacture of pharmaceutical formulations for treatment against various parasites, mycoplasmas, other indications and other infections” (Prendergast, Patrick Thomas, priority 1990, dated 1991).

The subject of data set [1] is CAEV. Nature of the data set: Experiment la(c): Himalayan Tahr ovary cells, CAEV, p28 radioimmunoassay. The format is cell-based, caprine arthritis encephalitis virus (CAEV). The following applies: as read from Figure 15. An excerpt:
A procedure similar to that followed in Experiment la (a) was followed using Himalayan Tahr ovary cells exposed to caprine arthritis encephalitis virus (CAEV), a lentivirus related to HIV-1 which causes leukoen- cephalitis and arthritis in goats. A radioimmunoassay to detect CAEV p28 was used to determine the presence of the virus.

Data set [2] deals with L donovani. Nature of the data set: Amastigotes (AM) in cell lines, in-vitro. Further: key: - no/poor activity,; + fair/moderate activity,; ++ good/excellent activity. The format is cell-based. To be noted: Ld., Amastigote. The source says:
(§1) Amastigotes of Leishmania can be cultivated in a wide range of mammalian cells, some of which may be used in in-vitro screens. These include (1) a Sticker dog sarcoma (fibroblast) cell line, (2) transformed rodent macrophage cell lines, (3) primary isolated mouse peritoneal macrophages (MP mo), and (4) human monocyte-derived macrophages (HM mo). The methods are similar for all models. Amastigote or promastigote infected cells are maintained in a medium containing the drug for 4-7 days, at 37 C for L. donovani and 33-35 C for L. major and L. mexicana. Drug activity is then assessed by counting (I) the number of infected host cells and/or (II) the number of amastigotes/100 host cells.
(§2) In-vitro and in-vivo models were used to test activities of a selection of many compounds. Those activities are summarized in Tables 1-3, showing variation between systems and species. Activities measured in the MP mo and HM mo models have shown the best correlation with results obtained in hamster and mouse models.

The test system of data set [3] is L major/L mexicana. Nature of the data set: Amastigotes (AM) in cell lines, in-vitro. Further: key: - no/poor activity,; + fair/moderate activity,; ++ good/excellent activity. To be noted: Lm., Amastigote. The format is cell-based.
Source text: as §1, §2

The subject of data set [4] is H9 cells. Nature of the data set: Cytotoxicity on uninfected H9 cells, 10 days continuous exposure. The data set is classed as cell-based, human. To be noted: read-out: ID50 - The concentration of IPA which kills 50% of the cells. The procedure: The "Percent Dead Cells" are taken from Tables la(d) (iii) and la(d) (v) using the 10-day value, and the therapeutic index have been calculated for each drug concentration. The results of IPA are also graphed in Figures 16 and 17. Cytotoxicity (the dashed line) is calculated as the percent live cells.
The availability of toxicity data collected in the same time frame as required for determination of antiviral effectiveness allowed determination of values for two different cell lines. Figures 16 and 17 illustrate the curves obtained by plotting the cytotoxicity of IPA (as a percent of the control cell viability) versus the percent of inhibition of HIV-1 replication (as a percent of the control titer) when H9 and 81-66-45 cells were tested. The cytotoxicity data obtained with 10 days continuous exposure, using uninfected cells, were used since 10 days was the length of time required to carry out the infectivity test. As is apparent from Tables la-(d) (ii) - la(d) (v), toxicity is much lower when the drug is added to cells for one day and then removed, or when cells are exposed for only 1 or 4 days. It is difficult to mimic in-vivo exposure times, particularly if metabolites are more toxic than the parent compound and are readily cleared in-vivo but not in-vitro.

Data set [5] has as its system Monocytes. Briefly: Experiment la(f): monocyte spontaneous migration (agarose droplet). The data set is classed as cell-based, human. The following applies: for Total Area (mm^2) Migration: Table Ia(f)(ii). The procedure:
Monocytes from each human donor were incubated for 30 minutes with three different dose levels of compound la in triplicate. These cells were added to agarose and droplets of agarose containing cells were added to small chambers. A chemotaxis agent was added to induce enhanced migration of the mononuclear cells. The detailed assay procedures are described below.
Cell migration patterns of triplicates within 30% of each other were generally accepted.
• 1. Add 6 ml Phosphate Buffered Saline (PBS) 2X to 7 ml of Percoll. • 2. Add mixture to 15 ml polycarbonate centrifuge tubes (Sorvall ^*03243, 18 x 100 mm, pt. ^*00770 50/box, w/caps). ' • 3. Centrifuge tubes at 21,000 x g for 45 minutes (Sorvall, RC2-B centrifuge w/SS-34 rotor, 34 fixed angle, -15,000 rpm w/Drake off @ 4 C). Percoll gradient is good for two weeks. • 4. Mononuclear cells are separated from whole blood by differential centrifugation using a synthetic separation medium. • 5. Cells are washed 2X with Basal Salt Solution (BSS). • 6. Resuspend cells in BSS + 10% BCS, then add mixture to 50 ml centrifuge tubes containing 30-40 ml of Bovine Calf Serum (BCS) and centrifuge at 400 x g for 10 minutes. • 7. Resuspend cells in BSS without BCS. • 8. Determine viable cell number. • 9. Adjust concentration of cells to […]. • 10. Carefully layer 2 ml of cells on top of Percoll gradient. Centrifuge tubes at 100 x g for 20 minutes at 4°C with brake off. • 11. Monocyte layer is harvested with a pasteur pipet and aliquoted into a 50 ml centrifuge tube. Dead cells are in the top band. Monocytes are about 5 ml above middle gradient. Lymphocytes are about 5 ml below middle gradient. […] Wash cells 3X in BSS without BCS. • 13. Resuspend cells in desired media. • 14. Perform esterase stain on monocyte cell suspension to determine ratio of monocytes. Ratio ranges from 50 - 80%.
• 1. A 0.4% solution of Agarose (Seakem HE) and distilled H20 is prepared, aliquoted into 1 dram vials, autoclaved and stored at 4° C until used. • 2. A suspension of […] cells in Media 199 2X containing glutamine 2mM, gentamicin 50 µg/ml and bovine calf serum-heat inactivated (56° C, […]) 20%, is combined with an equal amount of 0.4% Agarose. • 3. A 5 µl droplet of cell/agarose mixture is added to the centre of a Sterilin plate (Surrey, England). • 4. A 2 µl droplet of agarose/media mixture is added 3-5mm to one side of the cell/agarose droplet and a 2 µl droplet of agarose/chemo-attractant (N-formyl-L-methionyl-L-Leucyl-L-Phenylalanine 10^-4 M(F-Met-Leu-Phe)) is added 3-5mm to the other side of the cell/agarose droplet. • 5. The droplets are allowed to solidify, after which 0.5 ml of RPMI-1640 containing glutamine 2mM, gentamicin 50, µg/ml and bovine calf serum 10% is added to the well. A cover slip is then placed over the well. • 6. The plate is incubated at 37° C, 5% C02/air humified for approximately 18 hours. • 7. The plate is removed from the incubator and the distance the cells have moved towards the media control and the chemoattractant droplets is traced and measured.

Each structure is given as a SMILES string.

For `CC(C)=CCNc1ncnc2c1ncn2[C@@H]1O[C@H](CO)[C@@H](O)[C@H]1O` [IPA, N^6-(Δ^2-isopentenyl) adenosine], the IC50 (in general, the concentration at which inhibition is half-maximal) in data set [1] stood at 8 µM. Also, the IC90 (commonly the concentration needed for an effect of 90%) in data set [1] stood at 30 µM. Besides, the “Activity, AM in cell lines” value in data set [2] is given as “-”; in data set [3] it was “+”. In addition, the CC50 in data set [4] is 50 µM. In addition, in data set [5] (30 µM), the “reduction in spontaneous migration” value is recorded as 15%. Further, the spontaneous migration entry in data set [5] (0.1 - 0.3 µM) is “Enhanced spontaneous migration”. For the same compound, the “reduction in the ability of the monocytes to spontaneously migrate” value in data set [5] (100 - 1000 µM) is reported as 22-37%. Moreover, the “Total Area (mm^2) Migration” value is recorded as 7952 mm^2 in data set [5] (IPA 5 µM, media 9085); 6846 mm^2 in data set [5] (IPA 10 µM, media 9085); 6300 mm^2 in data set [5] (IPA 15 µM, media 9085); 6804 mm^2 in data set [5] (IPA 20 µM, media 8732); 6435 mm^2 in data set [5] (IPA 25 µM, media 8732); 5795 mm^2 in data set [5] (IPA 30 µM, media 8732).
